For assay [1], the target named is rat TAAR1 (Rattus norvegicus (Rat), UniProt Q923Y9). In words: Radioligand binding assay on rat TAAR1. As to conditions: rat TAAR1 (second value of the cell); membranes of HEK-293 cells stably expressing rat TAAR1; read-out: Ki (μM) mouse/rat. The protocol: (§1) Construction of TAAR Expression Plasmids and Stably Transfected Cell Lines
(§2) For the construction of expression plasmids the coding sequences of human, rat and mouse TAAR 1 were amplified from genomic DNA essentially as described by Lindemann et al.. The Expand High Fidelity PCR System (Roche Diagnostics) was used with 1.5 mM Mg^2+ and purified PCR products were cloned into pCR2.1-TOPO cloning vector (Invitrogen) following the instructions of the manufacturer. PCR products were subcloned into the pIRESneo2 vector (BD Clontech, Palo Alto, Calif.), and expression vectors were sequence verified before introduction in cell lines.
(§3) HEK293 cells (ATCC # CRL-1573) were cultured essentially as described by Lindemann et al. (2005). For the generation of stably transfected cell lines HEK293 cells were transfected with the pIRESneo2 expression plasmids containing the TAAR coding sequences (described above) with Lipofectamine 2000 (Invitrogen) according to the instructions of the manufacturer, and 24 hrs post transfection the culture medium was supplemented with 1 mg/ml G418 (Sigma, Buchs, Switzerland). After a culture period of about 10 d clones were isolated, expanded and tested for responsiveness to trace amines (all compounds purchased from Sigma) with the cAMP Biotrak Enzyme immunoassay (EIA) System (Amersham) following the non-acetylation EIA procedure provided by the manufacturer.
Radioligand Binding Assay on Rat TAAR1
(§4) Membrane Preparation and Radioligand Binding.
HEK-293 cells stably expressing rat TAAR1 were maintained at 37° C. and 5% CO2 in DMEM high glucose medium, containing fetal calf serum (10%, heat inactivated for 30 min at 56° C.), penicillin/streptomycin (1%), and 375 μg/ml geneticin (Gibco). Cells were released from culture flasks using trypsin/EDTA, harvested, washed twice with ice-cold PBS (without Ca^2+ and Mg^2+), pelleted at 1,000 rpm for 5 min at 4° C., frozen and stored at −80° C. Frozen pellets were suspended in 20 ml HEPES-NaOH (20 mM, pH 7.4) containing 10 mM EDTA and homogenized with a Polytron (PT 6000, Kinematica) at 14,000 rpm for 20 s. The homogenate was centrifuged at 48,000×g for 30 min at 4° C. Subsequently, the supernatant was removed and discarded, and the pellet resuspended in 20 ml HEPES-NaOH (20 mM, pH 7.4) containing 0.1 mM EDTA using the Polytron (20 s at 14,000 rpm). This procedure was repeated and the final pellet resuspended in HEPES-NaOH containing 0.1 mM EDTA and homogenized using the Polytron. Typically, aliquots of 2 ml membrane portions were stored at −80° C. With each new membrane batch the dissociation constant (Kd) was determined via a saturation curve. […] Nonspecific binding was defined as the amount of ^3[H]-(S)-4-[(ethyl-phenyl-amino)-methyl]-4,5-dihydro-oxazol-2-ylamine bound in the presence of 10 μM unlabeled ligand. All compounds were tested at a broad range of concentrations ([…]) in duplicates. The test compounds (20 […]μl/well) were transferred into a 96 deep well plate (TreffLab), and 180 μl of HEPES-NaOH (20 mM, pH 7.4) containing MgCl2 (10 mM) and CaCl2 (2 mM) (binding buffer), 300 μl of the radioligand ^3[H]-(S)-4-[(ethyl-phenyl-amino)-methyl]-4,5-dihydro-oxazol-2-ylamine at a concentration of 3.3×Kd in nM and 500 μl of the membranes (resuspended at 50 μg protein per ml) added. The 96 deep well plates were incubated for 1 hr at 4° C. Incubations were terminated by rapid filtration through Unifilter-96 plates (Packard Instrument Company) and glass filters GF/C (Perkin Elmer) presoaked for 1 hr in polyethylenimine (0.3%) and washed 3 times with 1 ml of cold binding buffer. After addition of 45 μl of Microscint 40 (PerkinElmer) the Unifilter-96 plate was sealed and after 1 hr the ratioactivity counted using a TopCount Microplate Scintillation Counter (Packard Instrument Company).

In assay [2] the target is mouse TAAR1 (Mus musculus (Mouse), UniProt Q923Y8). Kind of assay: Radioligand binding assay on mouse TAAR1. As to conditions: mouse TAAR1 (first value of the cell); membranes of HEK-293 cells stably expressing mouse TAAR1; read-out: Ki (μM) mouse/rat. The procedure:
as §1, §2, §3
Radioligand Binding Assay on Mouse TAAR1
as §4
HEK-293 cells stably expressing mouse TAAR1 were maintained at 37° C. and 5% CO2 in DMEM high glucose medium, containing fetal calf serum (10%, heat inactivated for 30 min at 56° C.), penicillin/streptomycin (1%), and 375 μg/ml geneticin (Gibco). Cells were released from culture flasks using trypsin/EDTA, harvested, washed twice with ice-cold PBS (without Ca^2+and Mg^2+), pelleted at 1,000 rpm for 5 min at 4° C., frozen and stored at −80° C. Frozen pellets were suspended in 20 ml HEPES-NaOH (20 mM, pH 7.4) containing 10 mM EDTA and homogenized with a Polytron (PT 6000, Kinematica) at 14,000 rpm for 20 s. The homogenate was centrifuged at 48,000×g for 30 min at 4° C. Subsequently, the supernatant was removed and discarded, and the pellet resuspended in 20 ml HEPES-NaOH (20 mM, pH 7.4) containing 0.1 mM EDTA using the Polytron (20 s at 14,000 rpm). This procedure was repeated and the final pellet resuspended in HEPES-NaOH containing 0.1 mM EDTA and homogenized using the Polytron. Typically, aliquots of 2 ml membrane portions were stored at −80° C. With each new membrane batch the dissociation constant (Kd) was determined via a saturation curve. The TAAR1 radioligand ^3[H]-(S)-4-[(ethyl-phenyl-amino)-methyl]-4,5-dihydro-oxazol-2-ylamine (described in WO 2008/098857) was used at a concentration equal to the calculated Kd value, that was usually around 0.7 nM, resulting in the binding of approximately 0.5% of the radioligand and a specific binding representing approximately 70% of the total binding. Nonspecific binding was defined as the amount of ^3[H]-(S)-4-[(ethyl-phenyl-amino)-methyl]-4,5-dihydro-oxazol-2-ylamine bound in the presence of 10 μM unlabeled ligand. All compounds were tested at a broad range of concentrations ([…]) in duplicates. The test compounds (20 […]μl/well) were transferred into a 96 deep well plate (TreffLab), and 180 μl of HEPES-NaOH (20 mM, pH 7.4) containing MgCl2 (10 mM) and CaCl2 (2 mM) (binding buffer), 300 μl of the radioligand ^3[H]-(S)-4-[(ethyl-phenyl-amino)-methyl]-4,5-dihydro-oxazol-2-ylamine at a concentration of 3.3×Kd in nM and 500 μl of the membranes (resuspended at […]) added. The 96 deep well plates were incubated for 1 hr at 4° C. Incubations were terminated by rapid filtration through Unifilter-96 plates (Packard Instrument Company) and glass filters GF/C (Perkin Elmer) presoaked for 1 hr in polyethylenimine (0.3%) and washed 3 times with 1 ml of cold binding buffer. […]

Sequence of mouse TAAR1 (Q923Y8 whole entry): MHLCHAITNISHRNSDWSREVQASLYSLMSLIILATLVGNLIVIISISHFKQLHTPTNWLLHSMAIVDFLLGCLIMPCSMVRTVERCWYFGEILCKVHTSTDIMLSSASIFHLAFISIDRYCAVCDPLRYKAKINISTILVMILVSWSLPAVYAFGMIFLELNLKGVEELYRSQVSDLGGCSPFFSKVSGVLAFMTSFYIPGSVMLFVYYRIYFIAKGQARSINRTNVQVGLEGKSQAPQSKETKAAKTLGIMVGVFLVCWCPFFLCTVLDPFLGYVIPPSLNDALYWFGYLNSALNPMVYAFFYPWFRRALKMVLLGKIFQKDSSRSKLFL
Sequence of rat TAAR1 (Q923Y9 whole entry): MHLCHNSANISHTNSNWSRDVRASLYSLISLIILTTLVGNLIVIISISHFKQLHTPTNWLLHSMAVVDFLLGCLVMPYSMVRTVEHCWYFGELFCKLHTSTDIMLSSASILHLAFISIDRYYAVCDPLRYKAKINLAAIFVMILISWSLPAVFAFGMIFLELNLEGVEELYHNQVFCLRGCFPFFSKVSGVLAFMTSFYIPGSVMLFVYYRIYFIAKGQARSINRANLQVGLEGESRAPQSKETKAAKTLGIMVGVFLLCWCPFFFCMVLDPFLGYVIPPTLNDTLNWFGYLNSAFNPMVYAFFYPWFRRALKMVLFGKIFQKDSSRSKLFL

As to `O=C(Nc1ccc(C(F)(F)F)cc1)Nc1ccc(C23CCC(CO2)NC3)cc1` (racemic) [Example 67, (RS)-1-[4-(5-Oxa-2-azabicyclo[2.2.2]octan-4-yl)phenyl]-3-[4-(trifluoromethyl)phenyl]urea], the Ki in assay [1] was 0.0263 µM; in assay [2], 0.0137 µM.
For the compound `O=C(Nc1ccc(C[C@@]23CN[C@@H](CO2)C3)cc1)c1ccc(OCC(F)(F)F)nc1` [Example 47, N-[4-[[(1R,4R)-5-Oxa-2-azabicyclo[2.2.1]heptan-4-yl]methyl]phenyl]-6-(2,2,2-trifluoroethoxy)pyridine-3-carboxamide], the Ki in assay [1] and in assay [2] was 0.0104 µM throughout.
Consider `CC(C)c1cc(C(=O)Nc2ccc(C[C@@]34CN[C@@H](CO3)C4)cc2)[nH]n1` [Example 52, 3-Isopropyl-N-[4-[[(1R,4R)-5-oxa-2-azabicyclo[2.2.1]heptan-4-yl]methyl]phenyl]-1H-pyrazole-5-carboxamide], for which the Ki is 1.16 µM in assay [1] and 0.295 µM in assay [2].
Consider `O=C(Nc1ccc(C23CCC(CO2)NC3)cc1)c1cnc(C2CC2)nc1` (racemic) [Example 14, (RS)-2-Cyclopropyl-N-[4-(5-oxa-2-azabicyclo[2.2.2]octan-4-yl)phenyl]pyrimidine-5-carboxamide], for which the Ki in assay [1] was over 10 µM; in assay [2] it was 0.136 µM.
As for `O=C(Nc1ccc(C23CCC(CO2)NC3)cc1)Nc1cccc(Cl)c1` (racemic) [Example 68, (RS)-1-(3-Chlorophenyl)-3-[4-(5-oxa-2-azabicyclo[2.2.2]octan-4-yl)phenyl]urea], the Ki in assay [1] was found to be 0.0681 µM; in assay [2], 0.0119 µM.
Turning to `O=C(Nc1ccc(C[C@@]23CN[C@@H](CO2)C3)cc1)Nc1ccc(C(F)(F)F)cc1` [Example 22, 1-[4-[[(1R,4R)-5-Oxa-2-azabicyclo[2.2.1]heptan-4-yl]methyl]phenyl]-3-[4-(trifluoromethyl)phenyl]urea], the Ki is 0.0237 µM in assay [1] and 0.0126 µM in assay [2].
The corresponding values for `O=C(Nc1ccc(C[C@@]23CN[C@@H](CO2)C3)cc1)c1ccc(Cl)cc1` [Example 21, 4-Chloro-N-[4-[[(1R,4R)-5-oxa-2-azabicyclo[2.2.1]heptan-4-yl]methyl]phenyl]benzamide] are 0.0626 µM and 0.003 µM.
As to `FC(F)(F)c1nccc(Nc2ccc([C@]34CN[C@H](CO3)C4)cc2)n1` [Example 62, N-[4-[(1S,4R)-5-Oxa-2-azabicyclo[2.2.1]heptan-4-yl]phenyl]-2-(trifluoromethyl)pyrimidin-4-amine], the Ki in assay [1] came to 0.233 µM; in assay [2] it was 0.144 µM.
`O=C(Nc1ccc(C[C@]23CN[C@H](CO2)C3)cc1)Nc1ccccc1Cl` [Example 9, 1-(2-Chlorophenyl)-3-[4-[[(1S,4S)-5-oxa-2-azabicyclo[2.2.1]heptan-4-yl]methyl]phenyl]urea]: the figures for the Ki in assay [1] and in assay [2] were 0.53 µM and 1.63 µM, respectively.
In the same order, the values of `O=C(Nc1ccc(Cl)cc1)Nc1ccc(C23CCC(CO2)NC3)cc1` (racemic) [Example 66, (RS)-1-(4-Chlorophenyl)-3-[4-(5-oxa-2-azabicyclo[2.2.2]octan-4-yl)phenyl]urea] are 0.0465 µM and 0.005 µM.
In the same order, the values of `O=C(Nc1ccc([C@@]23CN[C@@H](CO2)C3)cc1)c1ccnc(C(F)(F)F)c1` [Example 57] are 1.91 µM and 0.0593 µM.
Regarding `O=C(Nc1ccc(C[C@]23CN[C@H](CO2)C3)cc1)c1cccc(Cl)c1` [Example 17, 3-Chloro-N-[4-[[(1S,4S)-5-oxa-2-azabicyclo[2.2.1]heptan-4-yl]methyl]phenyl]benzamide], the Ki in assay [1] was determined as 0.229 µM; in assay [2] it was 0.112 µM.
On to `FC(F)(F)c1cnc(Nc2ccc(C34CCC(CO3)NC4)cc2)cn1` (racemic) [Example 64, (RS)—N-[4-(5-Oxa-2-azabicyclo[2.2.2]octan-4-yl)phenyl]-5-(trifluoromethyl)pyrazin-2-amine], for which the Ki in assay [1] was 7.68 µM; in assay [2] it was 0.03 µM.
With `O=C(Nc1ccc([C@@]23CN[C@@H](CO2)C3)cc1)c1ccc(Cl)cc1` [Example 54, 4-Chloro-N-[4-[(1R,4S)-5-oxa-2-azabicyclo[2.2.1]heptan-4-yl]phenyl]benzamide], the values for the Ki in assay [1] and in assay [2] were 0.97 µM and 0.0054 µM, respectively.
Regarding `FC(F)(F)c1cnc(Nc2ccc(C[C@]34CN[C@H](CO3)C4)cc2)nc1` [Example 33, N-[4-[[(1S,4S)-5-Oxa-2-azabicyclo[2.2.1]heptan-4-yl]methyl]phenyl]-5-(trifluoromethyl)pyrimidin-2-amine], the Ki in assay [1] turned out to be 0.881 µM; in assay [2] it was 5.8 µM.
For `O=C(Nc1ccc(C[C@]23CN[C@H](CO2)C3)cc1)Nc1ccc(C(F)(F)F)cc1` [Example 8, 1-[4-[[(1S,4S)-5-Oxa-2-azabicyclo[2.2.1]heptan-4-yl]methyl]phenyl]-3-[4-(trifluoromethyl)phenyl]urea], the Ki in assay [1] amounted to 0.0442 µM; in assay [2], 0.846 µM.
Take `O=C(Nc1ccc(C[C@@]23CN[C@@H](CO2)C3)cc1)c1[nH]nc(C2CC2)c1Cl` [Example 48, 4-Chloro-3-cyclopropyl-N-[4-[[(1R,4R)-5-oxa-2-azabicyclo[2.2.1]heptan-4-yl]methyl]phenyl]-1H-pyrazole-5-carboxamide]: the Ki was 0.112 µM in assay [1] and 0.0147 µM in assay [2].
